Reference: paper PMC10920384 (Heliyon, 2024)
Like-named read-outs stand apart in the source and are kept apart here. Marks after values point to notes of the source that are not given here.

What was measured:
[1] = target: dipeptidyl peptidase-IV (DPP-IV) from porcine kidney (Sus scrofa, UniProt P22411); experiment: Dipeptidyl peptidase-IV; assay type: biochemical; details: for inhibition at 50 µg/mL: read-out: % Inhibition at 50 μg/mL (DPP-IV)
[2] = tested on: α-glucosidase from Saccharomyces cerevisiae; experiment: α-Glucosidase inhibitory assay; assay type: biochemical; details: mean ± SD, N = 3

Chain of dipeptidyl peptidase-IV (DPP-IV) from porcine kidney (P22411 whole entry): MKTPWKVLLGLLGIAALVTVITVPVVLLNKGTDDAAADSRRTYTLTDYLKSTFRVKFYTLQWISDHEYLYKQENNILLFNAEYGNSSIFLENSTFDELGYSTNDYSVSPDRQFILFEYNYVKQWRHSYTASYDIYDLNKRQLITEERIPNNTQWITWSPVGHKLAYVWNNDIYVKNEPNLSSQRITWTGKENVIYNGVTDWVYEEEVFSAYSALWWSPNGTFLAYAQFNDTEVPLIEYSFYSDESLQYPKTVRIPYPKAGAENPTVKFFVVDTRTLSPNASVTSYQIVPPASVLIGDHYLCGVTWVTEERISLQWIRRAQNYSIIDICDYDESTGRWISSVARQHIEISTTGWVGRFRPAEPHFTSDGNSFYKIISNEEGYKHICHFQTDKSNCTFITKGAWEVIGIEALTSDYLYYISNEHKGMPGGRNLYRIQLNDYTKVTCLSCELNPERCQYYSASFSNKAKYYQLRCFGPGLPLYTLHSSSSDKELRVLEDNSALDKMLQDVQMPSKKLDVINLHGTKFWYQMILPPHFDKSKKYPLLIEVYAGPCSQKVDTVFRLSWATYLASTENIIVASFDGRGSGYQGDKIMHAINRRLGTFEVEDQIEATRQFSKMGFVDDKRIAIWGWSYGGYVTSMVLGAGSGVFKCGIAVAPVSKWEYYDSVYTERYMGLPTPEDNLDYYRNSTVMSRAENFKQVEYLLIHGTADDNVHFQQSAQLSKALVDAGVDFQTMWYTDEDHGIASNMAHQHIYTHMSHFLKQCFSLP

Row | Structure (SMILES) | % Inhibition at 50 μg/mL (DPP-IV) ([1]; mean ± SD, N = 3) | IC50 ([1]; read-out: IC50 (DPP-IV inhibition), mean ± SD, N = 3) | % Inhibition at 10 μg/mL (α-glucosidase) [2] | IC50 (α-glucosidase inhibition) [2] | IC50 [1] | inhibition at 50 µg/mL [1] | IC50 (DPP-IV inhibition) ([1]; mean ± SD, N = 3)
1 | COc1cc(OC)c(C(=O)/C=C/c2ccccc2)c(O)c1O [Compound 4, 2′,3′-dihydroxy-4′,6′-dimethoxychalcone] | 97.37 ± 1.01 ^a % | 28.7 µM | 38.04 ± 1.10% | >10 µg/mL | – | – | –
2 | O=c1cc(-c2ccccc2)oc2cc(O)cc(O)c12 [Compound 5, chrysin] | – | – | 27.31 ± 1.04% | >10 µg/mL | > 197 µM | 41.2 ± 1.03% | –
3 | COc1cc(OC)c2c(c1O)OC(c1ccccc1)CC2=O (stereo not shown) [Compound 7, 8-hydroxy-5,7-dimethoxyflavanone] | – | – | 34.57 ± 1.43% | >10 µg/mL | > 166 µM | 27.8 ± 2.96% | –

Second part, the compound after the results:

Row | % Inhibition at 50 μg/mL (DPP-IV) ([1]; mean ± SD, N = 3) | IC50 ([1]; read-out: IC50 (DPP-IV inhibition), mean ± SD, N = 3) | % Inhibition at 10 μg/mL (α-glucosidase) [2] | IC50 (α-glucosidase inhibition) [2] | IC50 [1] | inhibition at 50 µg/mL [1] | IC50 (DPP-IV inhibition) ([1]; mean ± SD, N = 3) | Structure (SMILES)
4 | – | – | 37.30 ± 1.03% | >10 µg/mL | > 195 µM | 30.4 ± 1.9% | – | O=C1C[C@@H](c2ccccc2)Oc2cc(O)cc(O)c21 [Compound 8, pinocembrin]
5 | – | – | 18.40 ± 1.39% | >10 µg/mL | > 156 µM | 27.1 ± 0.73% | – | CC(C)=CCCC(C)=CCCC(C)=CCc1c[nH]c2ccccc12 [Compound 9, 3-Farnesyl indole]
6 | 24.54 ± 2.38% | – | 28.13 ± 1.46% | >10 µg/mL | – | – | >50 µg/mL | COc1cc2c(c(O)c1OC)C(=O)C[C@@H](c1ccccc1)O2 [Compound 10, onysilin]
7 | – | – | – | – | – | 77.6 ± 1.18% | – | CC[C@H](C)[C@H](N)C(=O)N1CCC[C@H]1C(=O)N[C@H](C(=O)O)[C@@H](C)CC [Diprotin A, diprotin A, reference compound]
